Target: T1, soluble epoxide hydrolase (sEH) (Homo sapiens, UniProt P34913)
T1 sequence (P34913 1-555): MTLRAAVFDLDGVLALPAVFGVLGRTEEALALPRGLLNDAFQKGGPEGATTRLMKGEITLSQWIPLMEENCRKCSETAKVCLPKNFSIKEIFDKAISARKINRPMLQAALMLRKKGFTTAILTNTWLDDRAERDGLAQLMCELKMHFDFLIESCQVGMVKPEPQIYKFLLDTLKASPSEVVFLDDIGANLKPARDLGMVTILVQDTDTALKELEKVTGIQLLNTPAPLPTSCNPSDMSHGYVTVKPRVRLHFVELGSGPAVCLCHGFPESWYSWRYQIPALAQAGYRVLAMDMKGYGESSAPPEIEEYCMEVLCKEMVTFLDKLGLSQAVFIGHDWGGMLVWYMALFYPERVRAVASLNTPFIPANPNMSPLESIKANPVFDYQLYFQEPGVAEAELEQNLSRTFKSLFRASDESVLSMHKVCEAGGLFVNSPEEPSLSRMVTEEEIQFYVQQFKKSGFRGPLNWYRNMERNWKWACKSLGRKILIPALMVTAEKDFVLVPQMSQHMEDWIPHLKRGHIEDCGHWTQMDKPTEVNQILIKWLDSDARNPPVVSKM
Assay: in vitro biochemical activity test, sEH enzyme inhibition with EET substrate (LC-MS)
Details: 90 min pre-incubation at room temperature, 60 min reaction
Method: This example relates to the relationship between the structure and activity of (hetero)aryl imidazole compounds containing an aromatic substituent. Specifically, the biochemical activity of the (hetero)aryl imidazole compounds containing an aromatic substituent described in Example 1 as sEH enzyme inhibitors was evaluated by in vitro activity test experiments.
The experimental procedures for evaluating in vitro biochemical activity were described below.
The substrate used in the evaluation experiment was epoxyeicosatrienoic acid (EET). The solutions used in the evaluation experiments were Bis/Tris HCl 25 mM pH 7.0, Bis/Tris HCl 25 mM pH 7.0 containing 0.1 mg/mL BSA was used as buffer A, and Bis/Tris HCl 25 mM pH 7.0 containing 36.3 mM ZnSO4 was used as buffer B.
The specific steps of the evaluation experiment were as follows. 79 μL of buffer A was added to each well in a black 96-well plate and then 1 μL solution of the aromatic substituent-containing (hetero)aryl imidazole compound was added. Then, 10 μL sEH (1 μM) buffer A solution was added to the wells. After pre-incubation at room temperature for 90 min, 10 μL EET (10 μM) buffer A solution was added to trigger the reaction. After the mixture was allowed to react […] for 60 min, 15 μL buffer B and 180 μL acetonitrile were added to quench the reaction, followed by high-speed centrifugation and filtration for later use.
LC-MS was used to detect the concentration of EET in the samples. The final IC50 was calculated based on three independent experiments using Graphpad Prism software.

| IC50 [nM] | Structure (SMILES) |
| --- | --- |
| 0.45 | Nc1ncc(-c2cc3[nH]c(-c4cccc(C(F)(F)F)c4)nc3c(F)c2F)c(C(F)F)n1 [Compound 80, 5-(2-(3-(trifluoromethyl)phen-yl)-4,5-difluoro-1H-benzo[d]imidazol-6-yl)-4-(difluoro-methyl)pyrimidine-2-amine] |

Target: T1, soluble epoxide hydrolase (sEH)
Assay: PHOME assay activity test, sEH enzyme inhibition (fluorescence)
Type: biochemical
Details: PHOME 5 μM, pH 7.0; 10 min pre-incubation; test compound concentration range 20 nM-0.082 nM
Method: This example relates to the relationship between the structure and activity of (hetero)aryl imidazole compounds containing an aromatic substituent. Specifically, the biochemical activity of the (hetero)aryl imidazole compounds containing an aromatic substituent described herein as sEH enzyme inhibitors was evaluated by PHOME assay activity test experiment. The synthesis of the substrates and the test methods required for this test were all based on known literature reports (Analytical Biochemistry 2005, 343, 66-75).
The sEH enzyme activity inhibition experiment was performed in a low binding 96-well plate. The reaction system was 100 μL 25 mM Bis-Tris, pH 7.0, 0.1 mg/mL BSA buffer. The experimental steps of PHOME assay activity test were as follows.
First, a sEH enzyme solution with a final concentration of […] was mixed with compounds of different concentrations (test compound concentration range 20 nM-0.082 nM), and then pre-incubated on a shaker at room temperature for 10 min. The reaction was triggered by adding Phome fluorescent substrate at a final concentration of 5 μM and immediately placed in a Perkin Elmer microplate reader for dynamic monitoring for 1 hour at an excitation wavelength of 330 nm and an emission wavelength of 465 nm, with fluorescence readings at intervals of 1 minute. Graphpad Prism 9.0 software was used to calculate the slope of the fluorescence value increase in each well within 20 minutes, and the slope was used to calibrate the enzyme activity to calculate the inhibition rate of the compound on sEH enzyme activity under different concentration conditions. Finally, Graphpad Prism 9 was used to plot and calculate IC50 values.
The inhibitory activity IC50 values of some compounds against soluble epoxide hydrolase obtained by PHOME assay activity evaluation experiment are shown in Table 4.

| Structure (SMILES) | IC50 [nM] |
| --- | --- |
| Nc1ncc(-c2cc3[nH]c(-c4ccc5c(c4)OC(F)(F)O5)nc3c(F)c2F)c(C(F)F)n1 [Compound 89, 5-(2-(2,2-difluorobenzo[d][1,3]dioxol-5-yl)-4,5-difluoro-1H-benzo[d]imidazol-6-yl)-4-(difluoromethyl)pyrimidine-2-amine] | 0.35 |
| CN(C)c1nc(N)ncc1-c1cc2[nH]c(-c3ccc(C(F)(F)F)cc3)nc2c(F)c1F [Compound 92, 5-(2-(4-(trifluoromethyl)phen-yl)-4,5-difluoro-1H-benzo[d]imidazol-6-yl)-N4,N4-dimeth-ylpyrimidine-2,4-diamine] | < 0.082 |
| COCCNc1ncc(-c2cc3[nH]c(-c4ccc(C(F)(F)F)cc4)nc3c(F)c2F)c(C(F)F)n1 [Compound 88, 5-(2-(4-(trifluoromethyl)phen-yl)-4,5-difluoro-1H-benzo[d]imidazol-6-yl)-4-(difluoro-methyl)-N-(2-methoxyethyl)-pyrimidine-2-amine] | 0.65 |
| Nc1ncc(-c2cc3[nH]c(-c4ccc(F)c(OC(F)(F)F)c4)nc3c(F)c2F)c(C(F)F)n1 [Compound 94, 5-(2-(3-(trifluoromethoxy)-4-fluorophenyl)-4,5-difluoro-1H-benzo[d]imidazol-6-yl)-4-(difluoromethyl)pyrimidine-2-amine] | 2.54 |
| Nc1ncc(-c2cc3[nH]c(-c4cccc(C(F)(F)F)c4)nc3c(F)c2F)c(C(F)F)n1 [Compound 80, 5-(2-(3-(trifluoromethyl)phen-yl)-4,5-difluoro-1H-benzo[d]imidazol-6-yl)-4-(difluoro-methyl)pyrimidine-2-amine] | 0.65 |
| Cc1nc(N2CC(C(=O)O)C2)ncc1-c1cc2[nH]c(-c3ccc(C(F)(F)F)cc3)nc2c(F)c1F [Compound 96, 1-(4-methyl-5-(2-(4-(trifluoro-methyl)phenyl)-4,5-difluoro-1H-benzo[d]imidazol-6-yl)-pyrimidine-2-yl)azetidine-3-carboxylic acid] | 0.14 |
| N#Cc1nc(N)ncc1-c1cc2[nH]c(-c3ccc(C(F)(F)F)cc3)nc2c(F)c1F [Compound 95, 2-amino-5-(2-(4-(trifluoro-methyl)phenyl)-4,5-difluoro-1H-benzo[d]imidazol-6-yl)-pyrimidine-4-carbonitrile] | < 0.082 |
| Cc1nc(CN2CCOCC2)ncc1-c1cc2[nH]c(-c3ccc(C(F)(F)F)cc3)nc2c(F)c1F [Compound 97, 4-((4-methyl-5-(2-(4-(trifluoro-methyl)phenyl)-4,5-difluoro-1H-benzo[d]imidazol-6-yl)-pyrimidine-2-yl)methyl)mor-pholine] | 0.092 |
| CC(=O)N1CCN(Cc2ncc(-c3cc4[nH]c(-c5ccc(C(F)(F)F)cc5)nc4c(F)c3F)c(C)n2)CC1 [Compound 98, 1-(4-((4-methyl-5-(2-(4-(trifluoromethyl)phenyl)-4,5-difluoro-1H-benzo[d]imid-azol-6-yl)pyrimidine-2-yl)-methyl)piperazin-1-yl)ethan-1-one] | 0.11 |
| Nc1ncc(-c2cc3[nH]c(-c4ccc(OC(F)(F)F)c(F)c4)nc3c(F)c2F)c(C(F)F)n1 [Compound 90, 5-difluoro-1H-benzo[d]5-(2-(4-(trifluoromethoxy)-3-fluoro-phenyl)-4,5-difluoro-1H-benzo [d]imidazol-6-yl)-4-(difluoro-methyl)pyrimidine-2-amine] | 0.48 |
| Cc1nc(N2CC(O)C2)ncc1-c1cc2[nH]c(-c3ccc(C(F)(F)F)cc3)nc2c(F)c1F [Compound 93, 1-(4-methyl-5-(2-(4-(trifluoro-methyl)phenyl)-4,5-difluoro-1H-benzo[d]imidazol-6-yl)-pyrimidine-2-yl)azetidin-3-ol] | < 0.082 |

More lines, now with the values ahead:

| IC50 [nM] | Structure (SMILES) |
| --- | --- |
| 10.1 | Cc1nc(N)ncc1-c1cc2[nH]c(-c3ccc4oc(=O)n(C)c4c3)nc2c(F)c1F [Compound 100, 3-methyl-5-(6-(4-methyl-2-aminopyrimid-5-yl)-4,5-difluoro-1H-benzo[d]imid-azol-2-yl)benzo[d]oxazol-2(3H)-one] |
| 0.35 | Cc1nc(N)ncc1-c1cc2[nH]c(-c3ccc(C(F)(F)F)cn3)nc2c(F)c1F [Compound 101, 4-methyl-5-(2-(5-(trifluoro-methyl)pyrid-2-yl)-4,5-difluoro-1H-benzo[d]imid-azol-6-yl)pyrimidine-2-amine] |
| 41.6 | Nc1ncc(-c2cc3[nH]c(-c4ccc(C(F)(F)F)cc4)nc3c(F)c2F)c(C(=O)O)n1 [Compound 99, 2-amino-5-(2-(4-(trifluoro-methyl)phenyl)-4,5-difluoro-1H-benzo[d]imidazol-6-yl)-pyrimidine-4-carboxylic acid] |
| 1.45 | Cc1nc(N)ncc1-c1nc2[nH]c(-c3ccc(C(F)(F)F)cc3)nc2cc1F [Compound 102, 4-methyl-5-(2-(4-(trifluoromethyl)phenyl)-6-fluoro-3H-imidazo[4,5-b]pyridin-5-yl)-pyrimidine-2-amine] |
| 0.36 | Cc1cc(N)nnc1-c1cc2[nH]c(-c3ccc(C(F)(F)F)cc3)nc2c(F)c1F [Compound 103, 5-methyl-6-(2-(4-(trifluoro-methyl)phenyl)-4,5-difluoro-1H-benzo[d]imidazol-6-yl)-pyridazin-3-amine] |
| > 20 | Cc1nc(N2CC(O)C2)ncc1-c1cc2[nH]c(-c3ccc(S(=O)(=O)N(C)C)c(F)c3)nc2c(F)c1F [Compound 104, 4-(6-(4-methyl-2-(3-hydroxy-azetidin-1-yl)pyrimid-5-yl)-4,5-difluoro-1H-benzo[d]imidazol-2-yl)-2-fluoro-N,N-dimethylbenzenesulfonamide] |
| > 20 | Cc1nc(N2CC(C(=O)O)C2)ncc1-c1cc2[nH]c(-c3ccc(S(=O)(=O)N(C)C)c(F)c3)nc2c(F)c1F [Compound 105, 1-(4-methyl-5-(2-(3-fluoro-4-(N,N-dimethylsulfamoyl)phen-yl)-4,5-difluoro-1H-benzo[d]imidazol-6-yl)pyrimidine-2-yl)azetidine-3-carboxylic acid] |
